Reference: US5288705A, “Manipulation of ovulation and spawning in fish” (Israel Oceanographic & Limnological Research Ltd., priority 1988, dated 1994)

How the values were obtained:
Format in all cases: in vivo
[1] = test system: females of rainbow trout, Salmo gaixdneri; assay: Blood GtH levels after hormone administration (Example 4)
Procedure: (§1) 24 females of rainbow trout, Salmo gaixdneri, were divided into four groups, six fish in each group. Each group received one of the following treatments:
(§2) 1. Injection of the mammalian GnRHa as in Example 1 ([…] body weight), in saline;
(§3) 2. Administration of a biodegradable copolymer of polylactic-polyglycolic acid containing the same GnRHa (150 mg/fish 150 μg/fish) in pellets, implanted under the fish's skin;
(§4) 3. Ethylene vinyl acetate copolymer pellets containing a fish GnRH analog (GNRHH) - [D-Arg^6 -Pro^9 -NET]sGnRH (150 mg/fish 150 μg/fish),implanted under the skin;
All fish were bled before and at different intervals after hormone administration, for the determination of blood GtH levels, similarly as in Example 1.

[2] = test system: Female seabream (Sparus aurata); assay: Plasma GtH levels by specific homologous radioimmunoassay after GnRHa administration (Example 1); conditions: FIG. 1
Procedure: (§5) Female seabream (Sparus aurata) reaching final stages of vitellogenesis received one of the following treatment of GnRHa - an analog of mammalian GNRH ([D-Ala^6 -Pro^9 -NET]-LHRH):
(§6) 1. An intramuscular injection of GnRHa in a saline solution (10 μg GnRHa/kg body weight which is an acceptable amount for injection);
(§7) 2. Implantation of a Silastic implant (Sila.) according to Crim et al., 1986, containing GnRHa (150 μg GnRHa/fish);
(§8) 3. Implantation of a biodegradable copolymer of polylacticpolyglycolic acid (Z. implant) containing GnRHa (150 μg GnRHa/fish);
(§9) 4. Placebo injection of saline (Control).
Before the treatment and at various intervals thereafter, the fish were bled. After withdrawing a blood sample the fish were returned into the water. GtH levels were determined in the withdrawn blood sample by specific homologous radioimmunoassay. The results are shown in FIG. 1 of the annexed drawings.

[3] = test system: Female seabream (Sparus aurata); assay: Spawning activity of treated females kept with two males (Example 1); conditions: spawning activity = tens of thousands of fertilized eggs per day over more than one week
Procedure: as §5, §6, §7, §8, §9
Additionally, several treated, non-bled females from each treatment group were kept, each in a separate container, which was connected to an egg collector, together with two males. The females were followed for their spawning activity, which was defined in this experiment as tens of thousands of fertilized eggs collected per day over a period of more than one week.

[4] = test system: females of rainbow trout, Salmo gaixdneri; assay: Occurrence of ovulation monitored by ovarian biopsy (Example 4)
Procedure: as §1, §2, §3, §4
An additional four groups of 20 females in each group, undergoing advanced stages of vitellogenesis, were treated as above and used for monitoring the state of ovarian development and the occurrence of ovulation. An overian biopsy was sampled from these females every 2 to 4 days for 30 days post-treatment.

Q: Which results are given for [D-Ala^6 -Pro^9 -NET]-LHRH [Group 1]?
A: period of GtH level surge in plasma [1]: about 48 hrs.; plasma GtH level / GtH release [2]: decreased rapidly; percentage of the females showing spawning activity [3]: 25%; degree of ovulation (in percent of ovulated females) ([4]; 6 days post treatment): 30%; degree of ovulation (in percent of ovulated females) ([4]; 9 days post treatment): 40%; degree of ovulation (in percent of ovulated females) ([4]; 30 days post treatment): 60%; acceleration / synchronization of ovulation ([4]; versus control group): did not accelerate or synchronize ovulation
